In PubChem BioAssay AID1963854 (Molecular Pharmacology Branch, DTP, NCI, 2024):

System: 186277-243-T-J2-PDC complex spheroid viability
Assay: Anticancer human tumor 186277-243-T-J2-PDC patient-derived colon adenocarcinoma cell line growth inhibition [POLQ]
Conditions: for IC50: curve of first compound; for viability, T/C: stronger effect = lower value
Method in brief: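 Growth inhibition in 3D: complex spheroids (tumor PDC, HUVEC, MSC) treated with POLQ inhibitor combinations; where Cmax unknown, highest tested concentration 10 microM, except SN-38 at 1 microM.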

[1] = second compound 0.0316 µM, first compound 0.0316 µM
[2] = second compound 0.0316 µM, first compound 0.1 µM
[3] = second compound 0.0316 µM, first compound 0.316 µM
[4] = second compound 0.0316 µM, first compound 1 µM
[5] = second compound 0.0316 µM, first compound 3.16 µM
[6] = second compound 0.0316 µM, first compound 10 µM
[7] = second compound 0.1 µM, first compound 0.0316 µM
[8] = second compound 0.1 µM, first compound 0.1 µM
[9] = second compound 0.1 µM, first compound 0.316 µM
[10] = second compound 0.1 µM, first compound 1 µM
[11] = second compound 0.1 µM, first compound 3.16 µM
[12] = second compound 0.1 µM, first compound 10 µM
[13] = second compound 0.316 µM, first compound 0.0316 µM
[14] = second compound 0.316 µM, first compound 0.1 µM
[15] = second compound 0.316 µM, first compound 0.316 µM
[16] = second compound 0.316 µM, first compound 1 µM
[17] = second compound 0.316 µM, first compound 3.16 µM
[18] = second compound 0.316 µM, first compound 10 µM
[19] = second compound 1 µM, first compound 0.0316 µM
[20] = second compound 1 µM, first compound 0.1 µM
[21] = second compound 1 µM, first compound 0.316 µM
[22] = second compound 1 µM, first compound 1 µM
[23] = second compound 1 µM, first compound 3.16 µM
[24] = second compound 1 µM, first compound 10 µM
[25] = second compound 3.16 µM, first compound 0.0316 µM
[26] = second compound 3.16 µM, first compound 0.1 µM
[27] = second compound 3.16 µM, first compound 0.316 µM
[28] = second compound 3.16 µM, first compound 1 µM
[29] = second compound 3.16 µM, first compound 3.16 µM
[30] = second compound 3.16 µM, first compound 10 µM
[31] = second compound 10 µM, first compound 0.0316 µM
[32] = second compound 10 µM, first compound 0.1 µM
[33] = second compound 10 µM, first compound 0.316 µM
[34] = second compound 10 µM, first compound 1 µM
[35] = second compound 10 µM, first compound 3.16 µM
[36] = second compound 10 µM, first compound 10 µM
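Further: spheroids exposed to compounds for seven days.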
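Wherever viability, T/C is given: 100% = DMSO vehicle control viability.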

COc1cc2cc(C(=O)CCC(=O)O)sc2cc1OC + Cc1cccc(N(C)C(=O)C2C(O)CCN2c2nc(C)cc(C(F)(F)F)c2C#N)c1
IC50 (second compound 0.0316 µM): > 10 µM
IC50 (second compound 0.1 µM): > 10 µM
IC50 (second compound 0.316 µM): > 10 µM
IC50 (second compound 1 µM): > 10 µM
IC50 (second compound 3.16 µM): > 10 µM
IC50 (second compound 10 µM): > 10 µM
viability, T/C [1]: 97.6%
viability, T/C [2]: 87.7%
viability, T/C [3]: 95%
viability, T/C [4]: 82.1%
viability, T/C [5]: 111%
viability, T/C [6]: 91.6%
viability, T/C [7]: 88.8%
viability, T/C [8]: 89.1%
viability, T/C [9]: 90.5%
viability, T/C [10]: 99.7%
viability, T/C [11]: 105%
viability, T/C [12]: 99.2%
viability, T/C [13]: 101%
viability, T/C [14]: 91.7%
viability, T/C [15]: 96.6%
viability, T/C [16]: 98.1%
viability, T/C [17]: 93.5%
viability, T/C [18]: 103%
viability, T/C [19]: 93.2%
viability, T/C [20]: 93.5%
viability, T/C [21]: 102%
viability, T/C [22]: 109%
viability, T/C [23]: 101%
viability, T/C [24]: 113%
viability, T/C [25]: 106%
viability, T/C [26]: 112%
viability, T/C [27]: 92.4%
viability, T/C [28]: 99.4%
viability, T/C [29]: 118%
viability, T/C [30]: 91.7%
viability, T/C [31]: 107%
viability, T/C [32]: 109%
viability, T/C [33]: 112%
viability, T/C [34]: 101%
viability, T/C [35]: 93.9%
viability, T/C [36]: 84.4%

CC(C)n1c(=O)n(C)c2cnc3cc(F)c(-c4ccc(OCCCN5CCCCC5)nc4)cc3c21 + Nc1ccc(C#CCN(C(=O)Cc2ncc(C(F)(F)F)cc2C(F)(F)F)c2ccc(F)cc2)nn1
IC50 (second compound 0.0316 µM): > 10 µM
IC50 (second compound 0.1 µM): > 10 µM
IC50 (second compound 0.316 µM): > 10 µM
IC50 (second compound 1 µM): > 10 µM
IC50 (second compound 3.16 µM): > 10 µM
IC50 (second compound 10 µM): > 10 µM
viability, T/C [1]: 92.8%
viability, T/C [2]: 94%
viability, T/C [3]: 98.2%
viability, T/C [4]: 95.6%
viability, T/C [5]: 105%
viability, T/C [6]: 108%
viability, T/C [7]: 95.3%
viability, T/C [8]: 112%
viability, T/C [9]: 104%
viability, T/C [10]: 102%
viability, T/C [11]: 98.2%
viability, T/C [12]: 105%
viability, T/C [13]: 92.7%
viability, T/C [14]: 90.4%
viability, T/C [15]: 127%
viability, T/C [16]: 102%
viability, T/C [17]: 114%
viability, T/C [18]: 109%
viability, T/C [19]: 98.8%
viability, T/C [20]: 112%
viability, T/C [21]: 114%
viability, T/C [22]: 99.1%
viability, T/C [23]: 113%
viability, T/C [24]: 113%
viability, T/C [25]: 91.7%
viability, T/C [26]: 98.3%
viability, T/C [27]: 109%
viability, T/C [28]: 102%
viability, T/C [29]: 119%
viability, T/C [30]: 105%
viability, T/C [31]: 85.7%
viability, T/C [32]: 95.4%
viability, T/C [33]: 98.7%
viability, T/C [34]: 91.8%
viability, T/C [35]: 105%
viability, T/C [36]: 102%

O=C(c1cc(Cc2n[nH]c(=O)c3ccccc23)ccc1F)N1CCN(C(=O)C2CC2)CC1 + COC1C(OC(N)=O)C(O)C(Oc2ccc3c(O)c(NC(=O)c4ccc(O)c(CC=C(C)C)c4)c(=O)oc3c2C)OC1(C)C
IC50 (second compound 0.0316 µM): > 10 µM
IC50 (second compound 0.1 µM): > 10 µM
IC50 (second compound 0.316 µM): > 10 µM
IC50 (second compound 1 µM): > 10 µM
IC50 (second compound 3.16 µM): > 10 µM
IC50 (second compound 10 µM): > 10 µM
viability, T/C [1]: 117%
viability, T/C [2]: 105%
viability, T/C [3]: 106%
viability, T/C [4]: 92.3%
viability, T/C [5]: 123%
viability, T/C [6]: 66.7%
viability, T/C [7]: 98.7%
viability, T/C [8]: 102%
viability, T/C [9]: 95%
viability, T/C [10]: 97.3%
viability, T/C [11]: 119%
viability, T/C [12]: 63.2%
viability, T/C [13]: 98.5%
viability, T/C [14]: 111%
viability, T/C [15]: 109%
viability, T/C [16]: 94%
viability, T/C [17]: 109%
viability, T/C [18]: 66.1%
viability, T/C [19]: 90.7%
viability, T/C [20]: 101%
viability, T/C [21]: 109%
viability, T/C [22]: 102%
viability, T/C [23]: 107%
viability, T/C [24]: 65.9%
viability, T/C [25]: 101%
viability, T/C [26]: 105%
viability, T/C [27]: 114%
viability, T/C [28]: 90.1%
viability, T/C [29]: 103%
viability, T/C [30]: 63.9%
viability, T/C [31]: 101%
viability, T/C [32]: 91.6%
viability, T/C [33]: 101%
viability, T/C [34]: 115%
viability, T/C [35]: 126%
viability, T/C [36]: 66.2%
